# Source: patent US4863969A, “Treatment of premalignant lesions and certain malignant tumors” (priority 1985, dated 1989)
# Where two headings read alike, the source gives them in different places.
# What was measured:
# [1] = tested on: chemically-induced breast tumors; assay: Prevention of chemically-induced (dimethyl-benz(a)anthracene) breast tumors in female rats; assay type: in vivo, female Sprague-Dawley rats; details: in feed, 11 weeks
# Procedure: (A) The activity of compound Ia with respect to the prevention of chemically-induced breast tumors was determined according to the following procedure. Female Sprague-Dawley rats were used in this experiment. The experimental animals were kept under temperature-controlled and light-controlled conditions and had free access to drinking water and feed. At the age of 50 days 15 mg of dimethyl-benz(a)anthracene dissolved in arachis oil were administered to each rat by means of a probang. The treatment with compound Ia began 1 day after the administration of the carcinogen. The body weight of the experimental animals was recorded and the tumors were palpated weekly and measured with a vernier caliper. The volumes were calculated according to the formula D/2·d^2 in which D represents the larger diameter of the tumor ellipsoid and d represents the smaller diameter of the tumor ellipsoid. After 11 weeks the experiment was terminated and evaluated. In this experiment there were used in addition to 30 control animals, which received exclusively normal feed, the following three groups of experimental animals:
# 1. 33 rats to which were administered daily 30 mg/kg of compound Ia mixed with the feed.
# 2. 36 rats to which were administered daily 90 mg/kg of compound Ia mixed with the feed.
# 3. 33 rats to which were administered daily 270 mg/kg of compound Ia mixed with the feed.
# The feed mixture was adjusted weekly according to the body weight and the total food intake.
# [2] = tested on: squamous metaplasia of the vaginal epithelium; assay: Antimetaplastic activity in ovarectomized rats (hormone-induced squamous metaplasia, vaginal smear); assay type: in vivo, female Holtzmann rats
# Procedure: (C) The antimetaplastic activity of compound Ia was determined in rats according to the following method. Female Holtzmann rats weighing approximately 100 g were ovarectomized under Thiogenal narcosis after an adaptation period of 8 days and were used in the experiment after a further 14 days. In each case two animals were placed in a cage and had free access to feed which contained approximately 2000 IU of analytically determined vitamin A. Prior to the oral administration of the test compound the animals were treated subcutaneously each day for 6 successive days with the hormone mixture of 1 μg of estradiol benzoate and 250 μg of testosterone propionate dissolved in 0.1 ml of sesame oil. The parenteral hormone administration led to the formation of a clear granular stage in the vaginal smear, i.e. a squamous metaplasia. 2 days after the oral administration of the test substance the result of the reaction was again read off on the vaginal epithelium. The area method according to Behrens and Karber was employed to calculate the average effective dosages.
# [3] = tested on: Prostate (mouse)/hyperplasia induced by methylcholanthrene; assay: Chemically-induced precancerous tissue changes in prostate gland organ culture (methylcholanthrene-induced hyperplasia); assay type: cell-based; details: read-out: Hyperplastic alveoli, relative to methylcholanthrene control; for activity at 1 µM: 10^-6 M; for activity at 0.1 µM: 10^-7 M; for activity at 0.01 µM: 10^-8 M; for activity at 0.001 µM: 10^-9 M
# Procedure: (§1) (D) The activity of compound Ia on chemically-induced precancerous tissue changes was, furthermore, determined in vitro according to the following method. In this experiment prostate glands of mice and trachea of rats cultivated in organ cultures served as the experimental models. In tissues of organ cultures carcinogenic substances bring about after a short period precancerous changes in the form hyperplasias as well as metaplasias and dysplasias. Retinoids, which are administered simultaneously with the carcinogenic compounds or after these, prevent the hyperplasia or metaplasia and dysplasia or even cause these to regress.
# (§2) The prostate glands consist of alveoli lined with one row of secretory cells and separated by a thin connective tissue. They were removed from mice aged 3-5 months and cut into lobules of approximately 1.5×1.5×2.0 mm. At least six of these lobules were placed on filter paper and transferred on a metal lattice into small culture chambers. Two of these culture chambers were enclosed in a Petri dish lined with a moist filter paper. The culture chambers were filled with nutrient medium up to the height of the lattice so that the explants were moistened well with the nutrient medium, but were not immersed in this. At the nutrient medium there was used customary Medium 199 supplemented by the addition of 15% serum from newly born calves. The carcinogen (3-methylcholanthrene) was added to this prior to the incubation in a concentration of 4-5 μg/ml of nutrient medium. The cultures were then incubated at 37.5° C. During the incubation they were kept in a Macintosh flask which was gassed with a mixture of 5% CO2 +95% oxygen. In a first series of experiments the carcinogen and compound Ia were combined and the tissue was cultivated for 10-12 days. In a second series the explants were pre-treated with the carcinogen for 10-12 days and thereafter placed in a nutrient medium, which only contained compound Ia, for 4-7 days. The concentration of compound Ia lay in the range of 10^-9 to 10^-6 Mol.
# The activity of compound Ia is quantified by counting the normal and hyperplastic alveoli in sections of the explant. The results are expressed in percentages of hyperplastic alveoli of the total number of alveoli, for example 120 hyperplastic alveoli out of a total of 200 correspond to 60%. In explants treated with retinoids the percentage is usually small. […] The percentage of hyperplastic alveoli is reduced to 20/60=33%.
# [4] = tested on: Trachea (rats)/hyperplasia induced by dimethylbenzanthracene; assay: Chemically-induced precancerous tissue changes in trachea organ culture (dimethylbenzanthracene-induced hyperplasia); assay type: cell-based; details: Rattus norvegicus, read-out: Mitotic index, relative to dimethylbenzanthracene control; for activity at 1 µM: 10^-6 M; for activity at 0.1 µM: 10^-7 M; for activity at 0.01 µM: 10^-8 M; for activity at 0.001 µM: 10^-9 M
# Procedure: as §1, §2
# Trachea of rats are cultivated in the same manner and treated with dimethylbenzanthracene as the carcinogen. The mitotic index serves as the parameter of the hyperplasia. With retinoid the mitotic index and the hyperplasias, respectively, are smaller. The results are compiled in Tables IV (prostate) and V (trachea).
# [5] = cited from earlier work
# [6] = simultaneous treatment, methylcholanthrene (47% hyperplastic alveoli) = 100%
# [7] = subsequent treatment, methylcholanthrene (65% hyperplastic alveoli) = 100%
# [8] = simultaneous treatment, dimethylbenzanthracene (mitotic index 2.6) = 100%
# [9] = subsequent treatment, dimethylbenzanthracene (mitotic index 3.1) = 100%
smiles,measurement,setting,value
"C/C(=C\c1ccccc1)c1ccc2c(c1)C(C)(C)CCC2(C)C [Compound Ia, 1,2,3,4-tetrahydro-1,1,4,4-tetramethyl-6-[(E)-alpha-methylstyryl]naphthalene]",% tumor-bearing rats,[1]; 30 mg/kg daily oral,69.6%
same,Average number of tumors per rat,[1]; 30 mg/kg daily oral,3.0
same,Average tumor volume per rat in mm^3,[1]; 30 mg/kg daily oral,4904 mm^3
same,"% tumor-bearing rats, relative to control (100%)",[1]; 30 mg/kg daily oral,88%
same,"Average number of tumors per rat, relative to control (100%)",[1]; 30 mg/kg daily oral,81%
same,"Average tumor volume per rat, relative to control (100%)",[1]; 30 mg/kg daily oral,77%
same,% tumor-bearing rats,[1]; 90 mg/kg daily oral,63.8%
same,Average number of tumors per rat,[1]; 90 mg/kg daily oral,1.8
same,Average tumor volume per rat in mm^3,[1]; 90 mg/kg daily oral,2879 mm^3
same,"% tumor-bearing rats, relative to control (100%)",[1]; 90 mg/kg daily oral,80%
same,"Average number of tumors per rat, relative to control (100%)",[1]; 90 mg/kg daily oral,48%
same,"Average tumor volume per rat, relative to control (100%)",[1]; 90 mg/kg daily oral,45%
same,% tumor-bearing rats,[1]; 270 mg/kg daily oral,39.3%
same,Average number of tumors per rat,[1]; 270 mg/kg daily oral,0.7
same,Average tumor volume per rat in mm^3,[1]; 270 mg/kg daily oral,543 mm^3
same,"% tumor-bearing rats, relative to control (100%)",[1]; 270 mg/kg daily oral,50%
same,"Average number of tumors per rat, relative to control (100%)",[1]; 270 mg/kg daily oral,18%
same,"Average tumor volume per rat, relative to control (100%)",[1]; 270 mg/kg daily oral,9%
same,Relative activity (antimetaplastic),[2]; all-trans vitamin A acid = 100%,66.6%
same,Epithelium protection effect (=anti-metaplastic effect) reduced by the factor,[2]; compared with all-trans vitamin A acid,0.67
same,Antimetaplastic effect (average effective / protective dosage),"[2]; oral, read 2 days after administration, area method of Behrens and Karber",53.6 µg
same,activity at 1 µM,[3]; [6],25%
same,activity at 0.1 µM,[3]; [6],46%
same,activity at 0.01 µM,[3]; [6],60%
same,activity at 0.001 µM,[3]; [6],90%
same,activity at 1 µM,[3]; [7],54%
same,activity at 0.1 µM,[3]; [7],94%
same,activity at 0.01 µM,[3]; [7],98%
same,activity at 0.001 µM,[3]; [7],100%
same,activity at 1 µM,[4]; [8],54%
same,activity at 0.1 µM,[4]; [8],46%
same,activity at 0.01 µM,[4]; [8],46%
same,activity at 0.001 µM,[4]; [8],104%
same,activity at 1 µM,[4]; [9],45%
same,activity at 0.1 µM,[4]; [9],70%
same,activity at 0.01 µM,[4]; [9],74%
same,activity at 0.001 µM,[4]; [9],75%
same,Hypervitaminosis A phenomena,[5]; e.g. manifestations on skin and mucous membranes,"does not exhibit, in particular, any hypervitaminosis A phenomena"
same,Tolerability / toxic symptoms,[5]; in the therapeutically indicated dosages,well tolerated and that no toxic symptoms appear
same,Teratogenicity,[5]; in vivo,non-teratogenic
same,Skin irritation,[5]; skin,not irritating to the skin
